Test system: grass and broad leaf
Assay: Grass and broad leaf kill, cocktails compared against glyphosate (5%)
Assay type: in vivo
Source text: This cocktail can be mixed with water prior to use at 1:5 parts of water to 1:200 parts of water. The higher the concentration of the cocktail the faster the kill of the weeds. Cocktail I was compared against glyphosate (5%).
Compared against Glyphosate at 5%:
Same as Cocktail I but add concentrated glyphosate to yield 1% glyphosate in mix.

What does the source list for O=C(O)CNCP(=O)(O)O [Glyphosate, N-(phosphonomethyl) glycine]?
Grass and broad leaf kill, 24 hours (24 hours, Cocktail I vs glyphosate at 5%): 10%; Broad leaf and grass kill, 24 hours (24 hours, Cocktail II vs glyphosate at 5%): 10%; Broad leaf and grass kill, 24 hours (24 hours, Cocktail III (1% glyphosate in mix) vs glyphosate at 5%): 10%; Broad leaf and grass kill, 2 days (Cocktail II vs glyphosate at 5%): 20%; Broad leaf and grass kill, 2 days (Cocktail III (1% glyphosate in mix) vs glyphosate at 5%): 20%; Grass and broad leaf kill, 7 days (7 days, Cocktail I vs glyphosate at 5%): 100%; Broad leaf and grass kill, 7 days (7 days, Cocktail II vs glyphosate at 5%): 100%; Broad leaf and grass kill, 7 days (7 days, Cocktail III (1% glyphosate in mix) vs glyphosate at 5%): 100%
